Measured values reported in patent US6534659B2, “Sufidomaidocarboxylic acids, method for production thereof, and use therefor” (Nippon Shokubai Co., Ltd., priority 2000, dated 2003).

What was measured:
[1] = Ability to inhibit corrosion by polarization resistance (Rp), iron electrodes; design: ability to inhibit corrosion: concentration or dose not given beside the values; settings: for Ability to inhibit corrosion After 20 min. / Ability to inhibit corrosion After 15 hrs / Ability to inhibit corrosion Peak: Electrode Fe; for ability to inhibit corrosion / Rp: iron electrode, sodium salt
[2] = Ability to inhibit corrosion by polarization resistance (Rp), low-carbon steel electrodes (X65); settings: Electrode X65

CC1(C)SCCN1C(=O)CCC(=O)O [Example 3, N-(2-carboxylethylcarbonyl)-2,2-dimethylthiazolidine]
Ability to inhibit corrosion After 20 min. [1]: 71.4% | Ability to inhibit corrosion After 15 hrs [1]: 97.8% | Ability to inhibit corrosion Peak [1]: 98.1% | ability to inhibit corrosion ([1]; after the elapse of 25 minutes): 71.4% | ability to inhibit corrosion ([1]; after the elapse of 15 hours): 97.8% | ability to inhibit corrosion ([1]; peak): 98.1%

CC1(C)SCCN1C(=O)c1ccccc1C(=O)O [Example 1, N-(2-carboxybenzoyl)-2,2-dimethylthiazolidine]
Ability to inhibit corrosion After 20 min. [1]: 48% | Ability to inhibit corrosion After 15 hrs [1]: 96.3% | Ability to inhibit corrosion Peak [1]: 98.5% | ability to inhibit corrosion ([1]; after the elapse of 20 minutes): 47.6% | ability to inhibit corrosion ([1]; after the elapse of 15 hours): 96.3% | ability to inhibit corrosion ([1]; peak): 98.5% | Ability to inhibit corrosion After 20 min. [2]: 71.0% | Ability to inhibit corrosion After 15 hrs [2]: 94.7% | Ability to inhibit corrosion Peak [2]: 97.2%

CC1(C)SCCN1C(=O)C1CCCCC1C(=O)O (stereo not drawn) [Example 4, N-(2-carboxylcyclohexylcarbonyl)-2,2-dimethylthiazolidine]
Rp ([1]; after the elapse of 20 minutes): 640 Ω | ability to inhibit corrosion ([1]; after the elapse of 20 minutes): 95.9% | Rp ([1]; after the elapse of 15 hours): 5300 Ω | ability to inhibit corrosion ([1]; after the elapse of 15 hours): 98.3% | Rp ([1]; peak): about 7450 Ω | ability to inhibit corrosion ([1]; peak): 98.8%

CC1(C)SCCN1C(=O)C=CC(=O)O [Example 2, N-(2-carboxylvinylcarbonyl)-2,2-dimethylthiazolidine]
Rp ([1]; after the elapse of 20 minutes): 200 Ω | ability to inhibit corrosion ([1]; after the elapse of 20 minutes): 55.0% | Rp ([1]; after the elapse of 15 hours): 2000 Ω | ability to inhibit corrosion ([1]; after the elapse of 15 hours): 95.5% | Rp ([1]; peak): about 4800 Ω | ability to inhibit corrosion ([1]; peak): 98.1%
